Assay results reported in ChEMBL document CHEMBL4431318, “Design, synthesis and biological evaluation of novel 5-fluoro-1H-benzimidazole-4-carboxamide derivatives as potent PARP-1 inhibitors” (Bioorg Med Chem Lett, 2016).

Experiments:
HCT-116 [1] = assay: Cytotoxicity against human HCT116 cells by SRB assay; format: functional, cell-based
[2] = target: T1, Poly [ADP-ribose] polymerase 1 (Homo sapiens, UniProt P09874); assay: Inhibition of PARP1 (unknown origin)
HCT-116 [3] = assay: Potency index, ratio of IC50 for veliparib to IC50 for test compound against human HCT116 cells; format: functional
[4] = target: T1, Poly [ADP-ribose] polymerase 1; settings: A549
Description: Inhibition of PARP1 in human A549 cells assessed as potentiation of TMZ-mediated cytotoxicity at 0.5 uM by SRB assay

T1 sequence (P09874 whole entry): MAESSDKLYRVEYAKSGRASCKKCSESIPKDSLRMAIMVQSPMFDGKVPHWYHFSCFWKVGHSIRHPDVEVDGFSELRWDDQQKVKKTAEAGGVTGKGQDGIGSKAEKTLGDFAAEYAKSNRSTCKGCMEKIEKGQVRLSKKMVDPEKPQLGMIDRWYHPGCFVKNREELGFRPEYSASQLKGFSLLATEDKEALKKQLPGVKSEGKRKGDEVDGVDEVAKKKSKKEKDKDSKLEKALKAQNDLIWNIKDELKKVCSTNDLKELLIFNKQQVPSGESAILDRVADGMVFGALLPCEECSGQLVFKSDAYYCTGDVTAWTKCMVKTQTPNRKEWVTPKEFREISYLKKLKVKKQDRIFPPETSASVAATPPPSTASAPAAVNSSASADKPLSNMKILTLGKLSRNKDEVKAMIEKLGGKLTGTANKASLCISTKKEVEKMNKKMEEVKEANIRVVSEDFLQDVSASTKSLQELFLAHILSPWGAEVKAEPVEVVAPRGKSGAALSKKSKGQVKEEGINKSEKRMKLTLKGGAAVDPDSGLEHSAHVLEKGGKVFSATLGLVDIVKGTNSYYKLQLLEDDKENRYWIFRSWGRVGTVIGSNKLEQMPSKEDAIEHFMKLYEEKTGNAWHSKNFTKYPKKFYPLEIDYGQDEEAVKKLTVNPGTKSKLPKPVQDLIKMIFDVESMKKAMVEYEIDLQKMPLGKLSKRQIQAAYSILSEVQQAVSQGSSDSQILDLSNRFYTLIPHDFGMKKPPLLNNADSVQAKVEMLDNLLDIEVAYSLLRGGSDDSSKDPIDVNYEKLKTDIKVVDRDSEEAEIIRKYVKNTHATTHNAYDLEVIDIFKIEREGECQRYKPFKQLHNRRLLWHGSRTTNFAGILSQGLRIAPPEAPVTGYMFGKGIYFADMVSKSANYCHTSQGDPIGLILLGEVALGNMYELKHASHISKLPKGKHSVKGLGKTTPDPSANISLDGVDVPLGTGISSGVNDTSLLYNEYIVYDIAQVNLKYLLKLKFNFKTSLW

In the case of `NC(=O)c1c(F)ccc2[nH]c(-c3ccc(N4CCNCC4)cc3)nc12`, the IC50 (HCT-116 [1]; Homo sapiens, HCT-116) is reported as 7400 nM, the IC50 [2] is reported as 43.7 nM and the “Ratio IC50” value (HCT-116 [3]) is reported as 8.6.

`CN1CCC[C@@]1(C)c1nc2c(C(N)=O)c(F)ccc2[nH]1` gave an IC50 (HCT-116 [1]; Homo sapiens, HCT-116) greater than 100000 nM and an IC50 [2] of 21.7 nM.

For `CCCN1CCC(c2nc3c(C(N)=O)c(F)ccc3[nH]2)CC1`, the IC50 (HCT-116 [1]; Homo sapiens, HCT-116) was 65500 nM and the IC50 [2] was 29.8 nM.

`NC(=O)c1c(F)ccc2[nH]c(C3CCNCC3)nc12` gave an IC50 (HCT-116 [1]; Homo sapiens, HCT-116) greater than 100000 nM and an IC50 [2] of 39.1 nM.

Work on `NC(=O)c1c(F)ccc2[nH]c(C3CCCNC3)nc12` (configuration not stated) yielded an IC50 [2] of 25.8 nM.

Compound `C[C@]1(c2nc3c(C(N)=O)c(F)ccc3[nH]2)CCCN1` has an IC50 (HCT-116 [1]; Homo sapiens, HCT-116) greater than 100000 nM and an IC50 [2] of 5.7 nM.

With `C[C@]1(c2nc3c(C(N)=O)cccc3[nH]2)CCCN1` [VELIPARIB] the IC50 (HCT-116 [1]; hct-116) was 64000 nM and the PF50 [4] was 2.2.

For `NC(=O)c1c(F)ccc2[nH]c(-c3ccc(N4CCOCC4)cc3)nc12`, the IC50 (HCT-116 [1]; Homo sapiens, HCT-116) was 27000 nM, the IC50 [2] was 21.8 nM and the “Ratio IC50” value (HCT-116 [3]) was 2.3.
